Experimental data published in patent US20100093861A1, “TREATMENT OF INSULIN RESISTANCE OR DISEASES ASSOCIATED WITH INSULIN RESISTANCE” (Stevia ApS, priority 2006, published 2010).

Tests used:
GLUT2 = assay: Affymetrix gene chip analysis of KKAy islets: GLUT2; assay type: in vivo, mice; conditions: ISV vs. KKAy control islets, 9 weeks
Description: (§1) cRNA preparation and in vitro transcription: In total 6 Affymetrix arrays MOE430 2.0 probe array cartridge were used i.e. for analysis of 3 replicas for the KKAy control group and the ISV group, respectively. Each of the 6 samples consisted of pooled RNA from 3-4 KKAy mice. Preparation of target for hybridization was prepared from 340 ng of total RNA using MessageAmp™ II aRNA Amplification Kits (Ambion), according to the manufacturers instructions. Arrays were hybridised and scanned as described elsewhere (Kruhoffer et al., 2005).

Pdx1/Ipf1 = assay: Relative real time RT-PCR in islets of KKAy mice (Example 3): Pdx1/Ipf1; assay type: in vivo; conditions: 9 weeks
Description: Islets were isolated by the collagenase digestion technique. In brief, the animals were anesthetized with pentobarbital (50 mg/kg intraperitoneally) and midline laparotomy was performed. The pancreas was retrogradely filled with 3 mL ice-cold Hanks balanced salt solution (([HBSS] Sigma Chemical, St Louis, Mo.) supplemented with 0.3 mg/ml collagenase Boehringer Mannheim GmbH, Germany). The pancreas was subsequently removed and incubated for 19 minutes at 37° C. After rinsing in HBSS, the islets were handpicked under a stereomicroscope and immediately transferred to a tubes containing 1 ml Trizol (Gibco/Invitrogene, Calsbad, Calif., USA). The islets isolated from the NMRI mice were incubated overnight at 37° C. and 95% normal atmosphere/5% CO2 in 10 ml RPMI 1640 containing 11.1 mmol/L glucose supplemented with penicillin G and 100 μg/mL streptomycin (all Gibco/Invitrogene, Calsbad, Calif., USA).
For each group, islets from 3-4 mice (180-200 islets) were pooled in 1 ml Trizol reagent (Gibco/lnvitrogene, Calsbad, Calif., USA) before RNA purification. Total RNA was extracted according to the manufactures' instructions. RNA was quantified by measuring absorbance at 260 and 280 nm. The quality of the RNA was checked by the Agilent 2100 bioanalyzer (Agilent, Santa Clara, USA). […]

INS-1 = assay: Gene expression in islets from diabetic KKAy-mice, real time RT-PCR (Example 2): INS-1; assay type: in vivo; conditions: islets of KKAy-mice after nine weeks treatment, normalized to 18S rRNA
Description: A the end of the nine week period of the in vivo study in example 1 RNA was purified from Islets, muscle, liver and fat from the three experimental groups, using standard techniques as described in Kiergen, RNA easy.
Gene expression of PDX-1, IRS1, Beta2, 11beta-HSD-1, Akt1, C/EBP-alpha, CPT1, GLUT2, IGF1, IR and Ins1 was measured with Real time RT-PCR using Taq Man Assays normalized to 18S rRNA, using the standard protocol (ABI, USA). All reagents were obtained from (ABI, USA). All probes are standard probes obtainable from ABI, USA, under the specific probe code number, given in respect of each gene.

Somatostatin = assay: Affymetrix gene chip analysis of KKAy islets: Somatostatin; assay type: in vivo, mice; conditions: ISV vs. KKAy control islets, 9 weeks
Description: as §1

C/EBPalpha = assay: Affymetrix gene chip analysis of KKAy islets: C/EBPalpha; assay type: in vivo, mice; conditions: ISV vs. KKAy control islets, 9 weeks
Description: as §1

diabetic KKAy-mice = assay: In vivo study of plasma concentrations of insulin, glucose and triglycerides in KKAy-mice after isosteviol or soybean protein (Example 1); conditions: oral in diet
Description: The following experiment was performed to investigate the effect of isosteviol (ISV) and soybean protein on plasma concentrations of insulin, glucose and triglycerides. Four experimental groups, each consisting of 10 KKAy-mice (obtained from Clea Japan, Tokyo, Japan) and one control group of 20 C57 mice (obtained from Taconic, Ry, Denmark), all 5 weeks old, were feed the following three test diets in a period of nine weeks. • A: standard chow diet (SCD)(ALTROMIN 1320, Brogaarden, Hørsholm). Diet A was fed to one experimental group and to the control group. • B: standard chow diet (SCD) (ALTROMIN 1320, Brogaarden, Hørsholm)+0.02 g/kg BW of ISV (Waco Chemicals, Osaka, Japan). • C: diet containing 50 weight-% standard chow+50 weight-% Soybean Protein (SBP) (NutriPharma, Oslo)
Hormones and lipids were measured from blood sample at start and end of the treatment period. Fasting blood glucose as well as body weight were measured once a week. […] The blood was taken from the tail of the animals.
Isosteviol (ISV) and Soybean Protein (SBP) were given orally. The SBP were incorporated in the food pellet and the ISV was dissolved in absolute ethanol, the solution was inoculated on the pellets and the ethanol was allowed to evaporate, leaving the ISV on the food pellet. All diets were adjusted for vitamins and minerals, so that all diets content the same amount. Beside that, water was given ad libitum and a light cycle of 12 hours/12 hours was used. The experiment was performed in accordance with the guidelines of the Danish Council on Animal Care.

[1] = after 9 weeks of treatment, compared to standard chow diet, ISV 0.02 g/kg BW, SBP 50 weight-% of diet

C[C@@]12CC[C@@H]3[C@@](CC[C@H]4[C@@]3(C)CCC[C@@]4(C)C(=O)O)(CC1=O)C2 (single isomer, unassigned; ent-16) [ISV, ent-16-ketobeyeran-19-oic acid]
array: change of GLUT2 expression (GLUT2): upregulation | up regulation of Pdx1 (Pdx1/Ipf1; RT-PCR): ~2 fold | increased expression of Pdx1/Ipf1, ISV group vs. control group (Pdx1/Ipf1; normalized to 18S rRNA): 96% | increased expression of INS-1 compared to standard diet (INS-1): 132% | array: increased expression in Somatostatin (Somatostatin): 2.3 fold | array: change of C/EBPalpha expression (C/EBPalpha): down regulation | reduction of plasma glucose concentration, SCD vs. treatment (diabetic KKAy-mice; [1]): 73% | reduction of plasma insulin concentration, SCD vs. treatment (diabetic KKAy-mice; [1]): 192% | plasma triglyceride concentration, SCD vs. treatment (diabetic KKAy-mice; nine weeks treatment): 101%
